Measured values reported in US20250049924A1, “Abuse-Deterrent Pharmaceutical Composition with Aversion Properties” (AARDVARK THERAPEUTICS INC., priority 2022, published 2025).

Columns and labels:
[1] = system: bitter taste receptors in the oral cavity, including the tongue; assay: volunteer snorting experiment with DA in saline (granules or neat powder); assay type: in vivo, human
Method: One brave co-inventor attempted to “snort” a formulation of DA in either a granule form having talc as an excipient as DA is provided in clinical trials (Aardvark Therapeutics, Inc phase 1 and 2 studies for obesity) for oral administration in a capsule designed to prevent DA material from exposure to bitter taste receptors in the oral cavity, including the tongue. In a first round of “dose escalation” of a saline having DA in granules starting around […] of DA (wherein a granule weighs about 0.1 mg including the talc based excipients) in the volume of liquid snorted, it took a dose of around 0.1 mg DA (10 granules). The three attempts were 1 granule, 5 granules and lastly 10 granules. […] This sensation peaked around 15-20 min, and lasted about an hour. Was certainly annoying and not pleasant.
In view of the results with a granule formulation of DA, the day before filing this patent application, the co-inventor volunteer tried the snorting experiment again, but this time, using neat DA that was a powder dissolved in saline. Just one “snort” was attempted of 1 mg of DA in saline. It should be noted that the completed clinical trials of DA used a dose of 200 mg of DA taken orally in a capsule that dissolves in the stomach, avoiding mouth exposure. The report from our volunteer indicated: “Just snorted 1.0 mg of ARD-101 [DA] API [active pharmaceutical ingredient] . . . OMG.
So terrible. […] Like with the granules, there is no immediate aversive sensation. Maybe around minute 7-8 after snorting dose, the bitterness became apparent, with peak effect starting around minute 10-15. […] Drinking water almost makes it worse!
It's been over 30 min since the snorting and the bitterness has hardly diminished. If I ate breakfast, I might have vomited already.
A later text read: “It's been almost 6 hours and I still taste it. Bleh.”

[2] = systemic exposure of DA after oral administration (completed clinical trials and preclinical studies)
Text: This is in contrast to a controlled substance, such as an amphetamine, which is known to provide a bolus dose to the brain to provider a “high” experience for the drug abuser. This allows a drug abuser, snorting the disclosed formulation to experience a bolus dose of the controlled substance for a “high” while simultaneously, or shortly thereafter, experience a disgusting, revolting, vomit-inducing, sickening (but not life-threatening) massively unpleasant experience from the aversive agent, such as DA.
DB is commercially available but has not been developed for pharmaceutical use. However, DA has been used as an active pharmaceutical agent as a bitter receptor agonist, not as an aversive, in formulations that avoid oral cavity exposure.

[3] = systemic (intravenous) administration of DA, NOAEL; assay type: in vivo; conditions: systemic administration (i.e., intravenous administration)
rats = assay: animal toxicology studies, DA orally by gavage, behaviour; assay type: in vivo; conditions: oral gavage by less skilled technicians
[4] = DA granules in saline, around 0.1 mg DA (10 granules)
[5] = neat DA powder dissolved in saline, 1 mg, one snort

Question: For `CC(=O)[O-].CC[N+](CC)(CC(=O)Nc1c(C)cccc1C)Cc1ccccc1` [DA, Denatonium acetate], which “dose of DA that it took for an effect in dose escalation” value ([1]; DA granules (talc excipient) in saline, snorted, attempts of 1, 5 and 10 granules) is on record?
Answer: about 0.1 mg

Question: And the duration of sensation [1, 4]?
Answer: about an hour

Question: What about the nausea or vomiting [1, 4] of the same compound?
Answer: did not elicit nausea or vomiting

Question: What about the sensation after snorting [1, 4] of the same compound?
Answer: extremely bitter taste in the back of my throat and posterior portion of my tongue

Question: What about the “time of peak of sensation” value [1, 4] of the same compound?
Answer: 15 to 20 min

Question: And the “time to noticing the bitter taste” value [1, 4]?
Answer: ≤ 10 min

Question: What about the “effect compared with the granules” value ([1]; neat DA 1 mg versus granules snorted before) of the same compound?
Answer: significantly and measurably more disgusting

Question: What about the “deterrence of snorting, volunteer's judgement” value ([1]; neat DA powder dissolved in saline, 1 mg) of the same compound?
Answer: measurable deterrent to snorting

Question: What about the sensation after snorting [1, 5] of the same compound?
Answer: extreme bitterness in the back of the throat and the posterior tongue

Question: And the “start of peak effect” value [1, 5]?
Answer: 10 to 15 min

Question: What about the “time after snorting at which bitterness became apparent” value [1, 5] of the same compound?
Answer: 7 to 8 min

Question: What about the “time after snorting at which it is still tasted” value [1, 5] of the same compound?
Answer: ~6 h

Question: What about the “time since snorting at which bitterness has hardly diminished” value [1, 5] of the same compound?
Answer: over 30 min

Question: And the “part of the dose administered found systemically” value ([2]; oral administration)?
Answer: less than 1%

Question: And the “pharmacokinetics, distribution after oral exposure” value ([2]; oral exposure)?
Answer: substantially gut restricted

Question: What about the “NOAEL (no adverse effect level)” value [3] of the same compound?
Answer: high

Question: And the “behavior of the animals on gavage” value (rats)?
Answer: highly aversive and desperate behavior
